# In patent publication EP0418064B1, “Naphthalene and tetrahydronaphthalene gem-diphosphonate derivatives” (SYMPHAR S.A., priority 1989, dated 1991):
# Test system: Rat liver homogenates
# Assay: Antioxidant activity: FeSO₄-induced peroxide production in rat liver homogenates (thiobarbituric acid reaction)
# Assay type: biochemical
# Conditions: rat liver homogenate incubated with FeSO₄; peroxide determined by thiobarbituric acid reaction, malonaldehyde as standard; read-out: IC₅₀
# Method: Rat liver homogenates were prepared according to Fraga, C.G. et al. Free Radicals Biol. Med., 4, 155, 1988 and Kornburst D.J. et al. Lipids 15, 315, 1980.
# Peroxides were generated by incubation of the homogenate with the FeSO₄ as described by Quitanilha A.T. et al. Ann. N.Y., Acad. Sci. 393, 32, 1982.
# Compounds to be tested for their antioxidant activity were dissolved in DMSO and added to the incubation mixture. The amount of peroxide produced was determined by the thiobarbituric acid reaction using malonaldehyde as standard.
row,SMILES,IC50
1,"CCOP(=O)(OCC)C(=Cc1cc(C(C)(C)C)c(O)c2ccccc12)P(=O)(OCC)OCC [Example 1, Tetraethyl 2-[3-t-butyl-4-hydroxynaphthyl]ethenylidene-1,1-diphosphonate]",1500 nM
2,"CC(C)OP(=O)(OC(C)C)C(=Cc1cc(C(C)(C)C)c(O)c2c1CCCC2)P(=O)(OC(C)C)OC(C)C [Example 8, Tetraisopropyl 2-[3-tert-butyl-4-hydroxy-5,6,7,8-tetrahydronaphthyl]-ethenylidene-1,1-diphosphonate]",2500 nM
3,"CC(C)OP(=O)(OC(C)C)C(=Cc1cc(C(C)(C)C)c(O)c2ccccc12)P(=O)(OC(C)C)OC(C)C [Example 2, Tetraisopropyl 2-[3-t-butyl-4-hydroxynaphthyl]ethenylidene-1,1-diphosphonate]",700 nM
4,"CCOP(=O)(OCC)C(=Cc1cc(C(C)(C)C)c(O)c2c1CCCC2)P(=O)(OCC)OCC [Example 6, Tetraethyl 2-(3-tert-butyl-4-hydroxy-5,6,7,8-tetrahydronaphthyl)-ethenylidene-1,1-diphosphonate]",7000 nM
